# Assay results published in patent publication US20200172483A1, “HETEROCYCLIC SMALL MOLECULE MODULATORS OF HUMAN STING” (Curadev Pharma Limited, priority 2017, published 2020).
# Target: T1, WT/R232 STING protein (Homo sapiens, UniProt Q86WV6, H232R)
# T1 construct: host or cells: HEK293T
# Experiment: Luciferase reporter assay in HEK293T-hSTING-Luciferase cells (R232)
# Assay type: cell-based
# Details: 20 hr stimulation, EC50 range
# Excerpt: • a) Stable STING expressing cells—Stable HEK293T STING-expressing cell lines were generated using plasmids purchased from Invivogen, CA, USA, that contain STING cDNA cloned into the pUNO-1 vector under hEF1-HTLV promoter and containing the Blasticidin selection cassette. The plasmids hSTING (R232), hSTING (H232), hSTING (HAQ) were directly procured from Invivogen while hSTING (AQ) and hSTING (Q) were derived from hSTING (HAQ) and hSTING (R232) plasmids respectively by using a PCR based site directed mutagenesis method. These vectors were individually transfected into HEK293T cells using Lipofectamine (Invitrogen) and transfected cells were selected under Blasticidin selection. These transfected cells were further subjected to clonal selection using the limiting dilution method to obtain clonally pure populations of HEK cells transfected with each of the above mentioned human STING variants. Only those clones were selected in which ligand independent activation of STING was minimal. • b) Stable Luciferase reporter gene expressing cells—Stable HEK293T Luciferase reporter gene expressing cell lines were generated using pCDNA4 plasmids under an IRF-inducible promoter. This promoter is comprised of five tandem interferon-stimulated response elements (ISRE) fused to an ISG54 minimal promoter. This vector was transfected into HEK293T cells using Lipofectamine (Invitrogen) and transfected cells were selected under Zeocin selection. These transfected cells were further subjected to clonal selection using the limiting dilution method to obtain clonally pure populations of HEK cells transfected the Luciferase reporter construct. Only those clones were selected in which ligand independent induction of luciferase was minimal.
# 5×10^5 clonally selected HEK293T-hSTING-Luciferase cells were seeded in 384-well plates in growth medium and stimulated with novel compounds. After 20 hr of stimulation supernatant were removed and secretary reporter gene activity were measured using the Quanti-Luc detection system (Invivogen) on a Spectramax i3X luminometer.
# All compounds were first tested in a primary screen using WT/R232 STING protein to obtain a ‘fold-induction’ over baseline levels of protein activity.
# T1 sequence (Q86WV6 whole entry H232R): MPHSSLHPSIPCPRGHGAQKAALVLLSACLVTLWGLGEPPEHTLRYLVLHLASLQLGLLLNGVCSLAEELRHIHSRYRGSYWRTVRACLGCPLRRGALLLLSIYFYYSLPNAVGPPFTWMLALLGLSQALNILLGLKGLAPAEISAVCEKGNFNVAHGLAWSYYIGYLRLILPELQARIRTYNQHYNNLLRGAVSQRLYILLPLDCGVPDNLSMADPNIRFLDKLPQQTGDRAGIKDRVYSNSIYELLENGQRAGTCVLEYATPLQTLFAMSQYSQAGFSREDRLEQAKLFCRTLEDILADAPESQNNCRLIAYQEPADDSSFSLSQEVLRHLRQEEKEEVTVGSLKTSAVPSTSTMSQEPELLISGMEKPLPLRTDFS
row,EC50 [µM],SMILES
1,> 10,"Cc1cccc(CNC(=O)c2ccc3c(c2)N(Cc2cc(F)cc(F)c2)C(=O)C3(C)C)n1 [Example 28, 1-(3,5-difluorobenzyl)-3,3-dimethyl-N-((6-methylpyridin-2-yl)methyl)-2-oxoindoline-6-carboxamide]"
2,1 to 10,"CC1(C)C(=O)N(Cc2c(F)cccc2Cl)c2cc(C(=O)NCc3cc4cc(O)ccc4o3)ccc21 [Example 88, 1-(2-chloro-6-fluorobenzyl)-N-((5-hydroxybenzofuran-2-yl)methyl)-3,3-dimethyl-2-oxoindoline-6-carboxamide]"
3,1 to 10,"Cc1ccc(CNC(=O)c2ccc3c(n2)N(Cc2c(C)cccc2F)C(=O)C3(C)C)o1 [Example 195, 1-(2-fluoro-6-methylbenzyl)-3,3-dimethyl-N-((5-methylfuran-2-yl)methyl)-2-oxo-2,3-dihydro-1H-pyrrolo[2,3-b]pyridine-6-carboxamide]"
4,1 to 10,"CC1(C)C(=O)N(Cc2ccc(F)c(F)c2)c2cc(C(=O)NCc3ccco3)ccc21 [Example 46, 1-(3,4-difluorobenzyl)-N-(furan-2-ylmethyl)-3,3-dimethyl-2-oxoindoline-6-carboxamide]"
5,> 10,"O=C(NCc1ccco1)c1ccc2c(c1)N(Cc1ccccc1F)C(=O)C2(F)F [Example 133, 3.3-Difluoro-1-(2-fluorobenzyl)-N-(furan-2-ylmethyl)-2-oxoindoline-6-carboxamide]"
6,> 10,"Cc1ncc(CN2C(=O)C(C)(C)c3ccc(C(=O)NCc4c(F)cc(F)cc4F)cc32)o1 [Example 128, 3,3-dimethyl-1-((2-methyloxazol-5-yl)methyl)-2-oxo-N-(2,4,6-trifluorobenzyl)indoline-6-carboxamide]"
7,> 10,"Cc1ccc(-c2nc(CN3C(=O)C(C)(C)c4ccc(C(=O)NCc5c(F)cc(F)cc5F)cc43)c(C)o2)cc1 [Example 129, 3,3-dimethyl-1-((5-methyl-2-(p-tolyl)oxazol-4-yl)methyl)-2-oxo-N-(2,4,6-trifluorobenzyl)indoline-6-carboxamide]"
8,> 10,"CC1(C)C(=O)N(Cc2c(F)cccc2Cl)c2cc(C(=O)NCc3ccc4c(c3)CC(=O)N4)ccc21 [Example 95, 1-(2-chloro-6-fluorobenzyl)-3,3-dimethyl-2-oxo-N-((2-oxoindolin-5-yl)methyl)indoline-6-carboxamide]"
9,1 to 10,"CC1(C)C(=O)N(Cc2cc(F)cc(F)c2)c2cc(C(=O)NCc3ccc(F)o3)ccc21 [Example 69, 1-(3,5-difluorobenzyl)-N-((5-fluorofuran-2-yl)methyl)-3,3-dimethyl-2-oxoindoline-6-carboxamide]"
10,> 10,"CC1(CCO)C(=O)N(Cc2cc(F)cc(F)c2)c2cc(C(=O)NCc3ccc(F)cc3F)ccc21 (centres unmarked) [Example 174, N-(2,4-difluorobenzyl)-1-(3,5-difluorobenzyl)-3-(2-hydroxyethyl)-3-methyl-2-oxoindoline-6-carboxamide]"
11,> 10,CC1(C(N)=O)C(=O)N(Cc2cc(F)cc(F)c2)c2cc(C(=O)NCc3c(F)cc(F)cc3F)ccc21 (centres unmarked) [Example 170]
12,> 10,O=C(NCc1c(F)cc(F)cc1F)c1ccc2c(c1)N(Cc1cc(F)cc(F)c1)C(=O)C21CCCCC1 [Example 138]
13,1 to 10,"CC1(C)C(=O)N(Cc2ccncc2)c2cc(C(=O)NCc3c(F)cc(F)cc3F)ccc21 [Example 22, 3,3-dimethyl-2-oxo-1-(pyridin-4-ylmethyl)-N-(2,4,6-trifluorobenzyl)indoline-6-carboxamide]"
14,> 10,"O=C(NCc1ccco1)c1ccc2c(c1)N(Cc1c(F)cccc1Cl)C(=O)C21CC1 [Example 139, 1′-(2-chloro-6-fluorobenzyl)-N-(furan-2-ylmethyl)-2′-oxospiro[cyclopropane-1,3′-indoline]-6′-carboxamide]"
15,≤ 1,"CC1(C)C(=O)N(Cc2c(F)cc(O)cc2F)c2cc(C(=O)NCc3c(F)cc(F)cc3F)ccc21 [Example 65, 1-(2,6-difluoro-4-hydroxybenzyl)-3,3-dimethyl-2-oxo-N-(2,4,6-trifluorobenzyl)indoline-6-carboxamide]"
16,1 to 10,"CC1(C)C(=O)N(Cc2c(F)cccc2Cl)c2cc(C(=O)NCc3cccc(Cl)c3)ccc21 [Example 9, 1-(2-chloro-6-fluorobenzyl)-N-(3-chlorobenzyl)-3,3-dimethyl-2-oxoindoline-6-carboxamide]"
17,> 10,"CC1(C)C(=O)N(Cc2c(F)cccc2Cl)c2cc(C(=O)NCc3cccc4occc34)ccc21 [Example 93, N-(benzofuran-4-ylmethyl)-1-(2-chloro-6-fluorobenzyl)-3,3-dimethyl-2-oxoindoline-6-carboxamide]"
18,> 10,"Cc1nc(CN2C(=O)C(C)(C)c3ccc(C(=O)NCc4c(F)cc(F)cc4F)cc32)co1 [Example 83, 3,3-dimethyl-1-((2-methyloxazol-4-yl)methyl)-2-oxo-N-(2,4,6-trifluorobenzyl)indoline-6-carboxamide]"
19,> 10,"CC1(C)C(=O)N(Cc2ccc(F)cc2)c2nc(C(=O)NCc3c(F)cc(F)cc3F)ccc21 [Example 181, 1-(4-fluorobenzyl)-3,3-dimethyl-2-oxo-N-(2,4,6-trifluorobenzyl)-2,3-dihydro-1H-pyrrolo[2,3-b]pyridine-6-carboxamide]"
20,1 to 10,"CC1(C)C(=O)N(Cc2c(F)cccc2Cl)c2cc(C(=O)NCc3cc4cc([N+](=O)[O-])ccc4o3)ccc21 [Example 94, 1-(2-chloro-6-fluorobenzyl)-3,3-dimethyl-N-((5-nitrobenzofuran-2-yl)methyl)-2-oxoindoline-6-carboxamide]"
21,> 10,"O=C(NCc1c(F)cc(F)cc1F)c1ccc2c(c1)N(Cc1cc(F)cc(F)c1)C(=O)C2=O [Example 141, 1-(3,5-Difluorobenzyl)-2,3-dioxo-N-(2,4,6-trifluorobenzyl)indoline-6-carboxamide]"
22,1 to 10,"CC1(C)C(=O)N(Cc2ccccc2F)c2cc(C(=O)NCc3ccco3)ccc21 [Example 1, 1-(2-Fluorobenzyl)-N-(furan-2-ylmethyl)-3,3-dimethyl-2-oxoindoline-6-carboxamide]"
23,1 to 10,"CC1(C)C(=O)N(Cc2c(F)cccc2C(F)(F)F)c2cc(C(=O)NCc3c(F)cc(F)cc3F)ccc21 [Example 84, 1-(2-fluoro-6-(trifluoromethyl)benzyl)-3,3-dimethyl-2-oxo-N-(2,4,6-trifluorobenzyl)indoline-6-carboxamide]"
24,1 to 10,"CC1(C)C(=O)N(Cc2cccc(C(N)=O)c2F)c2cc(C(=O)NCc3c(F)cc(F)cc3F)ccc21 [Example 79, 1-(3-carbamoyl-2-fluorobenzyl)-3,3-dimethyl-2-oxo-N-(2,4,6-trifluorobenzyl)indoline-6-carboxamide]"
25,> 10,"Cc1oc(-c2ccccc2)nc1CN1C(=O)C(C)(C)c2ccc(C(=O)NCc3c(F)cc(F)cc3F)cc21 [Example 91, 3,3-dimethyl-1-((5-methyl-2-phenyloxazol-4-yl)methyl)-2-oxo-N-(2,4,6-trifluorobenzyl)indoline-6-carboxamide]"
26,1 to 10,"CC1(C)C(=O)N(Cc2cc(F)cc(F)c2)c2nc(C(=O)NCc3c(F)cc(F)cc3F)ccc21 [Example 180, 1-(3,5-difluorobenzyl)-3,3-dimethyl-2-oxo-N-(2,4,6-trifluorobenzyl)-2,3-dihydro-1H-pyrrolo[2,3-b]pyridine-6-carboxamide]"
